Measurements from ChEMBL document CHEMBL1157380, “Aplysamine 6, an alkaloidal inhibitor of Isoprenylcysteine carboxyl methyltransferase from the sponge Pseudoceratina sp” (J Nat Prod, 2008).
The source made the active and inactive calls. No cut-off for these calls is given here.

Columns and labels:
[1] = target: T1, Protein-S-isoprenylcysteine O-methyltransferase (Homo sapiens, UniProt O60725); assay: Inhibition of Icmt up to 100 uM after 60 mins using [3H]biotin as substrate by artifact assay
[2] = target: T1, Protein-S-isoprenylcysteine O-methyltransferase; assay: Inhibition of Icmt using [3H]SAM as substrate

T1 sequence (O60725 whole entry): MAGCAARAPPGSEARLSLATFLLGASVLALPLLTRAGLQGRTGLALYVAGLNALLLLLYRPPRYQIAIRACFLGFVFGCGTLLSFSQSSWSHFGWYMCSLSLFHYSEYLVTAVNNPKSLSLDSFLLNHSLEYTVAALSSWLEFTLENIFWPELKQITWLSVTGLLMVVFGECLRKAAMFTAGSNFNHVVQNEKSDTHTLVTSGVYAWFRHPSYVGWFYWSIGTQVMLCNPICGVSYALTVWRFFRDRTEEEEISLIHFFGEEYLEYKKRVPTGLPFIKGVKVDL

Activity [1]: inactive
IC50 [2]: 14 µM
Compound: COc1ccc(/C=C/C(=O)NCCc2cc(Br)c(OCCCN)c(Br)c2)cc1Br [APLYSAMINE 6]
